Assay results: publication PMC4795788, “Finding Potent Sirt Inhibitor in Coffee: Isolation, Confirmation and Synthesis of Javamide-II (N-Caffeoyltryptophan) as Sirt1/2 Inhibitor” (PLoS ONE, 2016)

How the values were obtained:
Assay type in all cases: biochemical
[1] = target: T1, Sirt3 (Homo sapiens, UniProt Q9NTG7); assay: fluorescent deacetylase assay, % inhibition at […]
T1 construct: human recombinant Sirt3 (Cayman Direct Fluorescent Screening Assay kit)
T1 sequence (Q9NTG7 102-399): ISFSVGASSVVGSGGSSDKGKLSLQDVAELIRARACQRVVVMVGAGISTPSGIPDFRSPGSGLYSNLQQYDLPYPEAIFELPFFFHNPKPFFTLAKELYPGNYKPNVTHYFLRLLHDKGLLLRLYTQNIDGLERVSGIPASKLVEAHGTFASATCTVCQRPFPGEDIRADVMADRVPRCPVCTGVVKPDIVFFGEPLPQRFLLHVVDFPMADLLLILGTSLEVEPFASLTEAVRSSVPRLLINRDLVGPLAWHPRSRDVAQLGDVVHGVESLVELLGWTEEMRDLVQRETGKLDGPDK

[2] = target: T2, Sirt2 (Homo sapiens, UniProt Q8IXJ6); assay: fluorescent deacetylase assay, Lineweaver-Burk kinetics (IC50 […])
T2 sequence (Q8IXJ6 2-389): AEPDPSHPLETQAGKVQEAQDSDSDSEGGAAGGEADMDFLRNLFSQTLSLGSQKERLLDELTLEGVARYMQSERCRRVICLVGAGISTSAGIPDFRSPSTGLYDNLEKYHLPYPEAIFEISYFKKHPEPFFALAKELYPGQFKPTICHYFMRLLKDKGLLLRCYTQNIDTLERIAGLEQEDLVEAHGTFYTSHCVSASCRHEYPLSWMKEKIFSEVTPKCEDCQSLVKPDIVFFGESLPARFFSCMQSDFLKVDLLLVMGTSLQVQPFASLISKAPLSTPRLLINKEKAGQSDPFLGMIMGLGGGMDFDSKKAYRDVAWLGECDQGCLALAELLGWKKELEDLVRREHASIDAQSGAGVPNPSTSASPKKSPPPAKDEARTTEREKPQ

[3] = target: T3, Sirt1 (Homo sapiens, UniProt Q96EB6); assay: fluorescent deacetylase assay
T3 construct: human recombinant Sirt1 (Cayman Direct Fluorescent Screening Assay kit)
T3 sequence (Q96EB6 2-747): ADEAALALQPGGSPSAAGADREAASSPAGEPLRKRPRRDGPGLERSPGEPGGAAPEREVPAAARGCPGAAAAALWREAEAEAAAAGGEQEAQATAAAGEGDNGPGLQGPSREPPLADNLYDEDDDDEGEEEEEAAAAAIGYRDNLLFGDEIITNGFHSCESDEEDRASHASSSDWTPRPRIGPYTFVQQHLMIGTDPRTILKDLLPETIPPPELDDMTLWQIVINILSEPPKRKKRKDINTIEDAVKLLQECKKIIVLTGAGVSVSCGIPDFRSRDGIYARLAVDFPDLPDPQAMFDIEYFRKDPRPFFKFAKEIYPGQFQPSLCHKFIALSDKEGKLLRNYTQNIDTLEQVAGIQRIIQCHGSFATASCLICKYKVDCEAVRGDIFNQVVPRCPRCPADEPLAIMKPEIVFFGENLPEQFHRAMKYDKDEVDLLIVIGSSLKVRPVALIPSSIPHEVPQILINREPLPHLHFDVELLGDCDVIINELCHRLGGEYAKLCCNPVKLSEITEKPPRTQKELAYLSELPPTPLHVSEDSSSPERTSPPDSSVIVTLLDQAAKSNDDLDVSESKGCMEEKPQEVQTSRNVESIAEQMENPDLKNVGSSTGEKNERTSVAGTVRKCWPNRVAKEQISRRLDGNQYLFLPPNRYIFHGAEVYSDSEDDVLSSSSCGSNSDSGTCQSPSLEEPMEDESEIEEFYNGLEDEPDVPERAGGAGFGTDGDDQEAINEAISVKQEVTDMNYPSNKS

O=C(/C=C/c1ccc(O)c(O)c1)N[C@@H](Cc1c[nH]c2ccccc12)C(=O)O [javamide-II, (E)-(3-(3,4-dihydroxyphenyl)acryloyl)tryptophan]
inhibition at 60 µM [1]: 50 ± 8.1%
Ki [2]: 5.3 µM
IC50 [3]: 34 µM
